pIC50: −log10 of the molar value. Like-named read-outs stand apart in the source and are kept apart here.
Columns and labels:
KRAS G12D = KRAS G12D (Homo sapiens, UniProt P01116, G12D); assay: In-vitro RAS-RAF binding assay (RRB), HTRF/FRET; type: biochemical; parameters: Biotinylated KRAS protein amino acids 1-169 (produced at Erasca); made in house; conditions: read-out: Inhibition of RAS-RAF Binding (in-vitro) KRAS (G12D) IC50
Outline: (§1)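 Biotinylated KRAS 1-169 (streptavidin-terbium donor, 30 nM) and GST-cRAF RBD (anti-GST d2 acceptor, 30 nM) in HEPES pH 7.5, NaCl, MgCl2, DTT buffer. After compound incubation, SOS1 catalytic domain plus GTPgS drive 60 min nucleotide exchange. HTRF FRET read at equilibrium, in duplicate.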

[1] = biological target: T1, KRas G12D fused to HiBiT peptide (Homo sapiens, UniProt P01116, G12D); assay: ASPC-1 HiBit assay to determine G12D degradation; type: cell-based; conditions: AsPC-1 HiBiT cells, 24-hour incubation; read-out: ASPC-1 HiBit DC50 (C)
T1 construct: endogenous in cells; host or cells: AsPC-1 HiBiT knock-in single clone (Cas9 RNP + ssODN)
Protocol: Compounds presented herein induce degradation of the KRas G12D (KRasG12D) upon treatment of engineered cancer cell line.
The degradation of the KRasG12D in cellular environment was measured using engineered homozygous KRasG12D AsPC-1 cell line in which KRas G12D was fused to luminescent HiBiT peptide at the N-terminal. The small (1.3 kDa) HiBiT peptide complements with high affinity to a larger (18 kDa) subunit evolved from NanoLuc (termed LgBiT). The resulting complex (i.e., reconstituted luciferase enzyme) generates bright luminescence that translates to high sensitivity (1 amol), broad dynamic range (four orders of magnitude), and rapid kinetics for real time quantitation.
To generate HiBit KRasG12D knock-in cell line, sgRNA (SEQ. ID NO: 1) and ssODN (SEQ. ID NO: 2) were designed and synthesized at GenScript.
RNP complex was generated by mixing of 100 pmol of Cas9 protein to PCR tubes containing 300 pmol sgRNA incubating the resultant complex at room temperature for 20 min. […] ssODN was added to RNP complex slowly and RNP-ssODN complex was incubated at room temperature for 10 min. RNP-ssODN complex was mixed with […] of AsPC-1 cells (1×10^6 cells total) and electroporated using Nucleofactor (Program CM-150). Cells were then incubated at ambient temperature for 5 min and transferred to a six-well plate containing 2 ml growth medium.
To select pools with the highest luminescence signal, 10^4 cells of parental AsPC-1 and transfected pools were plated in solid white 384-well tissue culture plates. 24 hours after seeding, HiBiT was detected using the Nano-Glo HiBiT Lytic Detection System (Promega) following manufacturer's instructions. Briefly, […] of Nano-Glo HiBiT Lytic Detection Reagent was added directly to the cells and mixed by inversion before recording luminescence on an Envision (Perkin-Elmer) with 0.5 s integration time.
Single clones were isolated from stable pool by limited dilution method and presence of HiBiT knock-in was verified by TA cloning and subsequent sequencing. Additionally, western blotting analysis was conducted to confirm selection of single clones with high luminescence signal.
For DC50S measurements, AsPC-1 HiBiT single clone cells were grown in RPMI 1640 medium (Invitrogen 22400-089) supplemented with 10% fetal bovine serum. Cells were seeded in 384-well tissue culture plates at a density of 7,000 cells/well and allowed to attach for 24 hours.
Test compounds were distributed directly into assay plate with the adjustment for DMSO concentration using Tecan HP D300e. For most of the experiments, the final concentration of compounds starts from 10 μM, 3-fold dilution dose response and 10 doses. […] DMSO final concentration is 1%. Each concentration of exemplary compound was tested as singleton. The negative control wells were cells with DMSO only, and the positive control wells were cells with […] inhibitor.
Following 24-hour incubation with the compounds plate and Nano-Glo® HiBiT Lytic reagents were equilibrated to room temperature. 20 μL of HiBiT Lytic reagent were added to each well. The assay plate was incubated on digital microplate shaker (350 rpm) for 20 min followed by centrifugation at 500 g for 1 min. Luminescence was recorded using Envision (Perkin-Elmer) using aperture 384-L1 with 0.1 s integration time.
HiBiT signal are used to calculate the % degradation at given compound concentration using the following formula:
% Degradation=(1−(Sample HiBiT signal−Ave Min signal)/(Ave Max signal−Ave Min signal))*100%
For DC50 calculation, the data with the hook effect were removed first and DC50S was reported using a 4-parameter fit of dose response curve using GraphPad in those cases where maximum % degradation was >50% and Minimal % degradation was <50%. The decrease in DC50 reflects that the exemplary compound led to a higher level of degradation of KRasG12D than another exemplary compound at specific timepoint of treatment of cancer cell line. […]

KRAS (WT) = biological target: T2, KRAS (WT) (Homo sapiens, UniProt P01116); assay: In-vitro RAS-RAF binding assay (RRB), HTRF/FRET; type: biochemical; conditions: read-out: Inhibition of RAS-RAF Binding (in-vitro) KRAS (WT) IC50
T2 construct: Biotinylated KRAS protein amino acids 1-169 (produced at Erasca); made in house
Outline: as §1

[2] = Table 2, average of multiple runs of each compound

KRAS G12D, sequence (P01116 1-169 isoform P01116-2 G12D): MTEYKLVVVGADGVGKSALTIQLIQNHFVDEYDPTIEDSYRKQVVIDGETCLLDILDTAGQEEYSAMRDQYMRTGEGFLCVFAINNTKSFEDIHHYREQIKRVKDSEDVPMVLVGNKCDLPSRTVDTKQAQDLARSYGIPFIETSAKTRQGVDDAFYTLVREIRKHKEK
T2 sequence (P01116 1-169 isoform P01116-2): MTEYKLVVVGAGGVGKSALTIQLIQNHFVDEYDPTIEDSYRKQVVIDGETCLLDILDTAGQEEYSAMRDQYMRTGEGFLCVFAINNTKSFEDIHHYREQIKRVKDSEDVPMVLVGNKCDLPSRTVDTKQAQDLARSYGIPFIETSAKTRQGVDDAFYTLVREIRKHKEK
T1 sequence (P01116 1-188 isoform P01116-2 G12D): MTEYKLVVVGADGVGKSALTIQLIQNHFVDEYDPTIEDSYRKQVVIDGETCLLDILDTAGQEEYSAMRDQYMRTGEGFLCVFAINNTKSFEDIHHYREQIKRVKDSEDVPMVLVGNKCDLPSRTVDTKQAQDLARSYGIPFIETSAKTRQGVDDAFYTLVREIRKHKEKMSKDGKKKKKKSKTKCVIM

Row | SMILES | pIC50 (KRAS G12D; Table 1) | pIC50 (KRAS G12D; [2]) | DC50 [1] | pIC50 (KRAS (WT); Table 1) | pIC50 (KRAS (WT); [2])
1 | C#Cc1c(F)ccc2cc(O)cc(-c3ncc4c(N5CC6CCC(C5)N6)nc(OC[C@@H]5CCCN5CCCOCCC(=O)N[C@H](C(=O)N5C[C@H](O)C[C@H]5C(=O)N[C@@H](C)c5ccc(-c6scnc6C)cc5)C(C)(C)C)nc4c3F)c12 [Example 13, (2S,4R)-1-[(2S)-2-[3-[3-[(2S)-2-[[4-(3,8-diazabicyclo[3.2.1]octan-3-yl)-7-(8-ethynyl-7-fluoro-3-hydroxy-1-naphthyl)-8-fluoro-pyrido[4,3-d]pyrimidin-2-yl]oxymethyl]pyrrolidin-1-yl]propoxy]propanoylamino]-3,3-dimethyl-butanoyl]-4-hydroxy-N-[(1S)-1-[4-(4-methylthiazol-5-yl)phenyl]ethyl]pyrrolidine-2-carboxamide] | 7.87 | 7.87 | 444 nM | 7.31 | 7.31
2 | C[C@H](NC(=O)[C@@H]1C[C@@H](O)CN1C(=O)[C@@H](NC(=O)CCOCCCN1CCCC1COc1nc(N2CC3CCC(C2)N3)c2cc(Cl)c(-c3ccc(F)c4sc(N)c(C#N)c34)c(F)c2n1)C(C)(C)C)c1ccc(-c2c(F)cccc2F)cc1 (stereo partly drawn) [Example 12, (2S,4R)-1-[(2S)-2-[3-[3-[2-[[7-(2-amino-3-cyano-7-fluoro-benzothiophen-4-yl)-6-chloro-4-(3,8-diazabicyclo[3.2.1]octan-3-yl)-8-fluoro-quinazolin-2-yl]oxymethyl]pyrrolidin-1-yl]propoxy]propanoylamino]-3,3-dimethyl-butanoyl]-N-[(1S)-1-[4-(2,6-difluorophenyl)phenyl]ethyl]-4-hydroxy-pyrrolidine-2-carboxamide] | 7.95 | 7.95 | 77.5 nM | 7.06 | 7.06
3 | CC(C)[C@@H](C(=O)N1C[C@H](O)C[C@H]1C(=O)N[C@@H](C)c1ccc(-c2c(F)cc(F)cc2F)cc1)c1cc(OCC2CCN(CCOc3nc(N4CC5CCC(C4)N5)c4cc(C(F)(F)F)c(-c5ccc(F)c6sc(N)c(C#N)c56)c(F)c4n3)CC2)no1 [Example 78, (2S,4R)-1-((2R)-2-(3-((1-(2-((7-(2-amino-3-cyano-7-fluorobenzo[b]thiophen-4-yl)-4-(3,8-diazabicyclo[3.2.1]octan-3-yl)-8-fluoro-6-(trifluoromethyl)quinazolin-2-yl)oxy)ethyl)piperidin-4-yl)methoxy)isoxazol-5-yl)-3-methylbutanoyl)-4-hydroxy-N-((S)-1-(2′,4′,6′-trifluoro-[1,1′-biphenyl]-4-yl)ethyl)pyrrolidine-2-carboxamide] |  | 7.59 | 294 nM |  | 5.78
4 | C#Cc1c(F)ccc2cc(O)cc(-c3ncc4c(N5CC6CCC(C5)N6)nc(OCCN5CCC6(CC5)CN(c5cc([C@H](C(=O)N7C[C@H](O)C[C@H]7C(=O)N[C@@H](C)c7ccc(-c8c(F)cccc8F)cc7)C(C)C)on5)C6)nc4c3F)c12 [Example 16, (2S,4R)-1-[(2R)-2-[3-[7-[2-[4-(3,8-diazabicyclo[3.2.1]octan-3-yl)-7-(8-ethynyl-7-fluoro-3-hydroxy-1-naphthyl)-8-fluoro-pyrido[4,3-d]pyrimidin-2-yl]oxyethyl]-2,7-diazaspiro[3.5]nonan-2-yl]isoxazol-5-yl]-3-methyl-butanoyl]-N-[(1S)-1-[4-(2,6-difluorophenyl)phenyl]ethyl]-4-hydroxy-pyrrolidine-2-carboxamide] |  | 8.01 | 69.7 nM |  | 6.03
5 | C#Cc1c(F)ccc2cc(O)cc(-c3ncc4c(N5CC6CCC(C5)N6)nc(OC[C@@H]5CCCN5CCCOCCC(=O)N[C@H](C(=O)N5C[C@H](O)C[C@H]5C(=O)N[C@@H](C)c5ccc(-c6c(F)cccc6F)cc5)C(C)(C)C)nc4c3F)c12 [Example 14, (2S,4R)-1-[(2S)-2-[3-[3-[(2S)-2-[[4-(3,8-diazabicyclo[3.2.1]octan-3-yl)-7-(8-ethynyl-7-fluoro-3-hydroxy-1-naphthyl)-8-fluoro-pyrido[4,3-d]pyrimidin-2-yl]oxymethyl]pyrrolidin-1-yl]propoxy]propanoylamino]-3,3-dimethyl-butanoyl]-N-[(1S)-1-[4-(2,6-difluorophenyl)phenyl]ethyl]-4-hydroxy-pyrrolidine-2-carboxamide] | 8.03 | 8.03 | 331 nM | 7.38 | 7.38
6 | C#Cc1c(F)ccc2cc(O)cc(-c3ncc4c(N5CC6CCC(C5)N6)nc(OC[C@@H]5CCCN5CCCOCCC(=O)N[C@H](C(=O)N5C[C@H](O)C[C@H]5C(=O)N[C@@H](C)c5ccc(-c6c(F)cc(F)cc6F)cc5)C(C)(C)C)nc4c3F)c12 [Example 49, (2S,4R)-1-((2S)-2-(3-(3-((2S)-2-(((4-(3,8-diazabicyclo[3.2.1]octan-3-yl)-7-(8-ethynyl-7-fluoro-3-hydroxynaphthalen-1-yl)-8-fluoropyrido[4,3-d]pyrimidin-2-yl)oxy)methyl)pyrrolidin-1-yl)propoxy)propanamido)-3,3-dimethylbutanoyl)-4-hydroxy-N-((S)-1-(2′,4′,6′-trifluoro-[1,1′-biphenyl]-4-yl)ethyl)pyrrolidine-2-carboxamide] |  | 8.13 | 324 nM |  | 7.60
7 | C#Cc1c(F)ccc2cc(O)cc(-c3ncc4c(N5CC6CCC(C5)N6)nc(OCCN5CCC6(CC5)CN(c5cc([C@H](C(=O)N7C[C@H](O)C[C@H]7C(=O)N[C@@H](C)c7ccc(-c8ccccc8Cl)cc7)C(C)C)on5)C6)nc4c3F)c12 [Example 99, (2S,4R)-1-((2R)-2-(3-(7-(2-((4-(3,8-diazabicyclo[3.2.1]octan-3-yl)-7-(8-ethynyl-7-fluoro-3-hydroxynaphthalen-1-yl)-8-fluoropyrido[4,3-d]pyrimidin-2-yl)oxy)ethyl)-2,7-diazaspiro[3.5]nonan-2-yl)isoxazol-5-yl)-3-methylbutanoyl)-N—((S)-1-(2′-chloro-[1,1′-biphenyl]-4-yl)ethyl)-4-hydroxypyrrolidine-2-carboxamide] |  | 7.80 | 264 nM |  | 5.79
8 | C[C@H](NC(=O)[C@@H]1C[C@@H](O)CN1C(=O)[C@@H](NC(=O)CCOCCCN1CCCC1COc1nc(N2CC3CCC(C2)N3)c2cc(Cl)c(-c3ccc(F)c4sc(N)c(C#N)c34)c(F)c2n1)C(C)(C)C)c1ccc(-c2c(F)cccc2F)cc1 (stereo partly drawn) [Example 19, (2S,4R)-1-((2S)-2-(3-(3-((2S)-2-((((7R)-7-(2-amino-3-cyano-7-fluorobenzo[b]thiophen-4-yl)-4-(3,8-diazabicyclo[3.2.1]octan-3-yl)-6-chloro-8-fluoroquinazolin-2-yl)oxy)methyl)pyrrolidin-1-yl)propoxy)propanamido)-3,3-dimethylbutanoyl)-N—((S)-1-(2′,6′-difluoro-[1,1′-biphenyl]-4-yl)ethyl)-4-hydroxypyrrolidine-2-carboxamide] |  | 8.12 | 63.2 nM |  | 7.11
